Data from patent publication US20140315786A1, “USE OF INTRACELLULAR ENZYMES FOR THE RELEASE OF COVALENTLY LINKED BIOACTIVES” (Catabasis Pharmaceuticals, Inc., priority 2011, published 2014).
One block for each compound: values may come before it.

How the values were obtained:
[1] = test system: ApoB secretion in HepG2 cells; experiment: ApoB secretion in HepG2 cells (oleate stimulated, ELISA); type: cell-based; details: Homo sapiens, linked bioactive
Experimental: HcpG2 cells (ATCC) were seeded at 10,000 cells per well in 96 well plates. After adhering overnight, growth media (10% FBS in DMEM) was removed and cells were serum starved for 24 hours in DMEM containing 0.1% fatty acid free bovine serum albumin (BSA, SIGMA®). Cells were then treated with the compounds. Niacin at 5 mM was used as a positive control. All treatments were performed in triplicate. Simultaneous with compound treatment, ApoB secretion was stimulated with the addition of […] complexed to fatty acid free BSA in a 5:1 molar ratio. Incubation with compounds and oleate was conducted for 24 hours. Media supernatants were removed and ApoB concentrations were measured using ELISA kits (MABTECH AB®). Percent inhibition of ApoB secretion was determined by normalizing data to vehicle treated wells. For a given compound, an IC50 (concentration at which 50% of ApoB secretion is inhibited) can also be determined by using a 4 parameter-fit inhibition curve model (GRAPH PAD PRISM®). In each experiment, cell viability was determined using the ATPlite 1-Step kit (PERKIN ELMER®), such that compound effects due to cytotoxicity could be monitored.

[2] = test system: NFκB; experiment: NFκB-driven luciferase reporter assay in LPS-challenged RAW 264.7 macrophages; type: cell-based; details: Mus musculus, RAW264.7; RAW 264.7, LPS 200 ng/mL; linked bioactive; read-out: IC50 in an NFkB assay
Experimental: RAW 264.7 cells transfected with an NFκB-driven luciferase reporter were plated in 96 well plates. Cells were treated with Vehicle (0.1% ethanol) or test compounds for 2 hours. As a positive control for inhibition of NFκB signaling, 6 wells were treated with […]. Cells were then challenged with 200 ng/mL LPS for 3 hours in the presence of test compounds. A subset of wells treated with vehicle remained unstimulated with LPS to determine the floor signal of the assay. NFκB driven luciferase activity was developed by addition of BriteLite luciferase kit (PERKIN ELMER®) and measured using a Victor V plate reader. NFκB activity (luciferase activity) for each treatment was normalized to Vehicle wells treated with LPS (% NFκB Response).

[3] = Rat liver lysate hydrolysis assay (FAAH and thiol reductase promoted cleavage); type: in vitro ADME
Experimental: The rat liver lysate hydrolysis experiment was performed in Eppendorf tubes, by adding the necessary amount of water for the assay first. A 10× buffer solution with final concentrations of HEPES and EDTA of 50 mM and 1 mM respectively was prepared from 500 mM HEPES and 10 mM EDTA in water. Rat liver lysate was removed from −80° C. storage, thawed and centrifuged at 4000 g for 5 min. A volume of the supernatant was transferred to the Eppendorf tube yielding a final concentration in the assay of 3 mg/mL rat liver lysate. The tube was gently inverted to mix the components. The reactions are then place in a 37° C. incubator for 20 min allowing the reaction mixture to reach 37° C. before the reaction was initiated.
To initiate the hydrolysis reaction, the samples were removed from the incubator and the compounds of the invention were added, as a DMSO solution, prepared in a manner to allow for <1% final DMSO concentration and 5 μM final compound concentration. […]
This rat liver lysate hydrolysis assay was used to assess the hydrolysis of bis-fatty acid linked bioactives into individual components. As an illustrative example, the bis-fatty acid cystamine linked bioactive VI-7 was assessed in this rat liver lysate assay. […] The amount of cysteamine that was formed could be quantitated by LC-MS/MS by carrying out an initial derivatization with Ellman's reagent. […] 50 μl of the tissue lysate reaction mixture was transferred to a 1.5 mL eppendorf tube and derivatization of cysteamine was performed with 50 μl 10 mM Ellman's reagent (5,5′ dithio-bis(2-nitrobenzoic acid). Samples were incubated at room temperature for 10 minutes, vortex for 1 minute followed by protein precipitation by addition of 300 μl of acetonitrile containing IS and 0.2% butylated hydroxyanisole (BHA). Supernatant was transferred to a clean LC vial and 10 μl of the sample was injected on LC-MS/MS for the measurement of cysteamine. The concentration of cysteamine was measured by LC-MS/MS. […]

[4] = biological target: T1, FAAH-1 (Homo sapiens, UniProt O00519); experiment: Hydrolysis in homogenate of COS-7 cells overexpressed with FAAH-1; type: biochemical
T1 construct: expressed in transfected cells; host or cells: COS-7
T1 sequence (O00519 1-579): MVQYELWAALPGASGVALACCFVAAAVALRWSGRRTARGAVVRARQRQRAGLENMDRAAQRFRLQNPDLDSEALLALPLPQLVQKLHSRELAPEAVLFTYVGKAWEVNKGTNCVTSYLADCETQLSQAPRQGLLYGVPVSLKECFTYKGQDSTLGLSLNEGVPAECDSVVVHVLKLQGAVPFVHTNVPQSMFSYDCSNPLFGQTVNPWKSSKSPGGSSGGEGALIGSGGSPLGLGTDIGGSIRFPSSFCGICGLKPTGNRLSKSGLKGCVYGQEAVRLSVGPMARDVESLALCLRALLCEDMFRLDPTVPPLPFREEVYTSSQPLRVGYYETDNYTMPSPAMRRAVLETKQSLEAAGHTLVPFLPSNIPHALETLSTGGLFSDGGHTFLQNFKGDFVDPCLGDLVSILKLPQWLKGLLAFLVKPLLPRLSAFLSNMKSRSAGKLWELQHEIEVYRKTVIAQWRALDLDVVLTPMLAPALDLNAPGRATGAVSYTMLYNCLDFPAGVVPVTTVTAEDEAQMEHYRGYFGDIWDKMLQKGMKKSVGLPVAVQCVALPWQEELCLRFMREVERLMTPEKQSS
Experimental: (§1) Hydrolysis experiments using COS-7 cells overexpressed with either FAAH-1 or FAAH-2. […] The next day, cells were transfected, in duplicate, with 10 μg Vector control, flag-FAAH-1 or flag-FAAH-2 plasmids using Lipofectamine 2000 (Invitrogen) according to the manufacturer's protocol. 24 hours post transfection, cells were washed 1× in cold PBS, aspirated dry, and then scraped off the plate in the presence of 0.6 mL reaction buffer (50 mM HEPES, pH 9.0; 1 mM EDTA). Cells were then homogenated using a VWR VDI 12 Adaptable Homogenizer, on ice for 1 minute, and the sample was then clarified by centrifugation at 6,000 g for 5 minutes. The supernatant of this homogenated fraction was then used for FAAH hydrolysis assays. […] Gel densitometry was performed and the % FAAH extracted in each successive lysis conditions was determined according to standard procedures.
(§2) The following hydrolysis experiments were performed using COS-7 cells containing overexpressed FAAH-1 or FAAH-2. […] Briefly, the hydrolysis experiments were carried out in Eppendorf tubes using procedures similar to the one described above. […] At time=0, 1, and 3 h, the protein was precipitated with acetonitrile.

[5] = biological target: T2, FAAH-2 (Homo sapiens, UniProt Q6GMR7); experiment: Hydrolysis in homogenate of COS-7 cells overexpressed with FAAH-2; type: biochemical; details: FIG. 9B; 5 μM inhibitor
T2 construct: expressed in transfected cells; host or cells: COS-7
T2 sequence (Q6GMR7 1-532): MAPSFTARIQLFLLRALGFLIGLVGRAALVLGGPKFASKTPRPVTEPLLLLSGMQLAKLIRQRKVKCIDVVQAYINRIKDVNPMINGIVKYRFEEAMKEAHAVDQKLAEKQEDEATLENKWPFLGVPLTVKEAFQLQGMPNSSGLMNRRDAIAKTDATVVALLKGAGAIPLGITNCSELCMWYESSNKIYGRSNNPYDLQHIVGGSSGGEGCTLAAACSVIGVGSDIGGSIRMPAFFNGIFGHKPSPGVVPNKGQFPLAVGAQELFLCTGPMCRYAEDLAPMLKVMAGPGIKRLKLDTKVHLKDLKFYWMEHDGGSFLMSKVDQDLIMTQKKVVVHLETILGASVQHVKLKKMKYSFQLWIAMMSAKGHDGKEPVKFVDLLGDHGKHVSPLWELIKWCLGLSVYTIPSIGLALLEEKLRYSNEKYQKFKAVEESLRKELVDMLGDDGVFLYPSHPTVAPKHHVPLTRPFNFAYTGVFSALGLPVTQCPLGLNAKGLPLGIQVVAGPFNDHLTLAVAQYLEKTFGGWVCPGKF
Experimental: as §1, §2

SMILES: CC/C=C\C/C=C\C/C=C\C/C=C\C/C=C\C/C=C\CCC(=O)NCCSSCCNC(=O)CCC/C=C\C/C=C\C/C=C\C/C=C\C/C=C\CC [VI-7, (4Z,7Z,10Z,13Z,16Z,19Z)-docosa-4,7,10,13,16,19-hexaenoic acid {2-[2-((5Z,8Z,11Z,14Z,17Z)-icosa-5,8,11,14,17-pentaenoylamino)-ethyldisulfanyl]-ethyl}-amide]
hydrolysis in rat liver lysate ([3]; FIG. 7A, 5 μM compound, 3 mg/mL rat liver lysate, 37° C.): time-dependent hydrolysis | formation of cysteamine in rat liver lysate ([3]; FIG. 7B, absence of the FAAH inhibitor PF-3845): time dependent formation of cysteamine

SMILES: CC/C=C\C/C=C\C/C=C\C/C=C\C/C=C\CCCC(=O)NCCNC(=O)c1cccnc1 [III-1, N-(2-(5Z,8Z,11Z,14Z,17Z)-icosa-5,8,11,14,17-pentaenamidoethyl)nicotinamide]
IC50 [1]: 50 µM

SMILES: CC/C=C\C/C=C\C/C=C\C/C=C\C/C=C\C/C=C\CCC(=O)NCCNC(=O)/C=C/C(=O)OC [IV-1, (E)-methyl 4-(2-(4Z,7Z,10Z,13Z,16Z,19Z)-docosa-4,7,10,13,16,19-hexaenamidoethylamino)-4-oxobut-2-enoate]
IC50 [2]: 16 µM

SMILES: O=C(Nc1cccnc1)N1CCC(Cc2cccc(Oc3ccc(C(F)(F)F)cn3)c2)CC1 [PF-3845]
effect of inhibitor on hydrolysis of compound I-1, FAAH-2 [5]: not as effective as URB597 | effect of FAAH inhibitor on formation of cysteamine from compound VI-7 in rat liver lysate ([3]; FIG. 7B, presence of inhibitor): essentially no increase in cysteamine | effect of inhibitor on rate of hydrolysis of compound I-1, FAAH-1 ([4]; FIG. 9A, 5 μM inhibitor): significantly reduced | effect of inhibitor on rate of formation of DHA from compound I-1, FAAH-1 ([4]; FIG. 9C, 5 μM inhibitor): significantly inhibited

Further lines, results first:

IC50 [1]: 50 µM
SMILES: CC/C=C\C/C=C\C/C=C\C/C=C\C/C=C\C/C=C\CCC(=O)NCCNC(=O)c1cccnc1 [III-2, N-(2-(4Z,7Z,10Z,13Z,16Z,19Z)-docosa-4,7,10,13,16,19-hexaenamidoethyl)nicotinamide]

IC50 [2]: 68 µM
SMILES: CC/C=C\C/C=C\C/C=C\C/C=C\C/C=C\C/C=C\CCC(=O)NCCNC(=O)CC/C=C\C/C=C\C/C=C\C/C=C\C/C=C\C/C=C\CC [VI-6, (4Z,7Z,10Z,13Z,16Z,19Z)-docosa-4,7,10,13,16,19-hexaenoic acid [2-((4Z,7Z,10Z,13Z,16Z,19Z)-docosa-4,7,10,13,16,19-hexaenoylamino)-ethyl]-amide]

IC50 [2]: 30 to 35 µM | hydrolysis (disappearance of compound) in COS-7 cells overexpressed with FAAH-1 ([4]; FIG. 9A, 5 μM, absence of any inhibitor, 0-3 h): significant hydrolysis | appearance of DHA from compound, FAAH-1 ([4]; FIG. 9C, 5 μM, no inhibitor): time dependent formation of DHA
SMILES: CC/C=C\C/C=C\C/C=C\C/C=C\C/C=C\C/C=C\CCC(=O)NCCNC(=O)c1ccccc1O [Compound I-1, N-(2-(4Z,7Z,10Z,13Z,16Z,19Z)-docosa-4,7,10,13,16,19-hexaenamidoethyl)-2-hydroxybenzamide]

IC50 [2]: 63 µM
SMILES: CC/C=C\C/C=C\C/C=C\C/C=C\C/C=C\C/C=C\CCC(=O)NCCNC(=O)CCC/C=C\C/C=C\C/C=C\C/C=C\C/C=C\CC [VI-5, (4Z,7Z,10Z,13Z,16Z,19Z)-docosa-4,7,10,13,16,19-hexaenoic acid [2-((5Z,8Z,11Z,14Z,17Z)-icosa-5,8,11,14,17-pentaenoylamino)-ethyl]-amide]

IC50 [1]: 10 µM
SMILES: CC/C=C\C/C=C\C/C=C\C/C=C\C/C=C\C/C=C\CCC(=O)N1CCN(C(=O)CCC/C=C\C/C=C\C/C=C\C/C=C\C/C=C\CC)CC1 [VI-1, (4Z,7Z,10Z,13Z,16Z,19Z)-1-[4-((5Z,8Z,11Z,14Z,17Z)-icosa-5,8,11,14,17-pentaenoyl)-piperazin-1-yl]-docosa-4,7,10,13,16,19-hexaen-1-one]
